Assay results: patent US10226041B2, “Compositions and methods for improving the quality of processed sperm” (Inguran, LLC, priority 2011, dated 2019)
Where “and” joins values, the source holds several entries; their conditions need not be identical. Equal values may be shown once.

Tested on: sex-sorted sperm cells
Test: CASA post-thaw motility of sex sorted bull sperm treated with OSR
Assay type: cell-based, bovine
Parameters: key to BCF: beat cross frequency in Hz; key to ALH: lateral head displacement in μm; key to STR / LIN: percent; key to Motile: percent motile sperm; key to VAP / VSL / VCL: velocity in μm/s
Details: for ALH / BCF / LIN / Motile / Prog / STR / VAP / VCL / VSL: 3 hr post-thaw
Text: 5. Sperm Motility Evaluations by CASA. A comparison of viewing chambers and slides can be done in a variety of IVOS instruments, which for example only can be a Hamilton-Thorne IVOS (Hamilton-Thorne, Beverly, Mass.). Instrument settings: image capture; frames per second=60; number of frames=30; cell detection; minimum contrast=50; minimum cell size=5; defaults, cell size=5; cell intensity=50; progressive cells, path velocity=50 um/s; straightness ≥70%; slow cells (um/s); average path velocity (VAP, <30 um/s), straight-line velocity (VSL, <15 um/s). The CASA motility variables measured can be a percentage of total motile sperm (motile), percentage of progressively motile sperm (progressive), VAO, VSL, curvilinear velocity (VCL, um/s), average lateral head displacement (ALK, um) and the number of times the sperm head crosses the mean path/s (BCF, Hz), straight-line sperm motility (STR, %), and linear sperm motility (LIN, %). See for instance, Lenz, R W, et al., J Anim Sci (2011) 89:383-388, incorporated by reference herein in its entirety.
One set of semen from each bull was used as a control while to the remaining sets of semen samples were added vitamin B12, as the antioxidant, at respective concentrations of 0.5 mg/ml and 0.25 mg/ml. For each sample, the same concentration of vitamin B12 was added (i) during the staining process, and (ii) in the catch fluid of the collection vessel. […] Sperm samples were sorted in “High Purity” mode, and the collected sex-sorted sperm were extended with a cryoextender, which in some cases again contained the same concentration of vitamin B12 and the samples were frozen. Three hours after thawing (which is a standard time frame to conduct quality control assessments on sorted frozen thawed sperm samples) the thawed samples were put through CASA, a machine that provides various data on sperm including motility and progressive motility information.
In the tables below: VAP (average path velocity (μm/s)); VSL (straight-line velocity (μm/s)); VCL (curvilinear velocity (μm/s)); ALH (average lateral head displacement (μm)); BCF (the number of times the sperm head crosses the mean path/s in Hz); STR (percent straight-line sperm motility); LIN (percent linear sperm motility); PIA (percent intact acrosomes); motile (percent motile sperm); and progressive (percent progressively motile sperm).
There is no correlation with regard to randomly assigned names such as “Bull A.” Bull A from Example 5 is not the same bull as Bull A from Example 7.
In both cases the concentration of the vitamin B12 was 1 mg/ml. For all other bulls in the table below unless otherwise indicated, the concentration of vitamin B12 added was also 1 mg/ml.
In an additional experiment, motility and progressive motility were checked 3.75 hours after thawing a sex sorted semen sample treated with the antioxidant. The OSR was not added to the control sample. The semen sample was derived from a single bull. 0.25 mg/ml concentration of vitamin B12 was added to the test sample during the staining step, the collecting step (in the catch fluid of the collecting vessel) and in the cryoprotectant extender prior to freezing the sample.
[…] The OSR was not added to the control samples. The semen samples were derived from two Holstein bulls.

[1] = 0.5 mg/ml, 2 step F, 3 hrs post-thaw, Bulls 1-5
[2] = .15 mg/ml, 3 step, Holstein, 1M/straw
[3] = .15 mg/ml, 3 step, Holstein, 2.1M/straw
[4] = .15 mg/ml, 3 step, Jersey, 2.1M/straw
[5] = .25 mg/ml, 3 step, Holstein, 1M/straw
[6] = .25 mg/ml, 3 step, Holstein, 2.1M/straw
[7] = .25 mg/ml, 3 step, Holstein, 5M/straw
[8] = .25 mg/ml, 3 step, Jersey, 2.1M/straw
[9] = .35 mg/ml, 3 step, Holstein, 1M/straw
[10] = .35 mg/ml, 3 step, Holstein, 2.1M/straw
[11] = .35 mg/ml, 3 step, Holstein, 5M/straw
[12] = .5 mg/ml, 3 step, Holstein, 5M/straw

Question: What does the source list for vitamin B12?
Answer: % Motility (0 hr, 1 step-stain (+−−), Bull C (Jersey), Trial 1): 80%; % Motility (0 hr, 1 step-stain (+−−), Bull C (Jersey), Trial 2): 61%; % Motility (0 hr, 2 step-stain (++−), Bull C (Jersey), Trial 1): 74%; % Motility (0 hr, 2 step-stain (++−), Bull C (Jersey), Trial 2): 57%; % Motility (0 hr, 3 step (+++), Bull C (Jersey), Trial 1): 70%; % Motility (0 hr, 3 step (+++), Bull C (Jersey), Trial 2): 76%; % Motility (0 hr, vitamin B12 0.5 mg/ml, 3 step, Bull A (Jersey)): 60%; % Motility (0 hr, vitamin B12 0.5 mg/ml, 3 step, Bull B (Holstein)): 79%; Motile (percent motile sperm) (0.5 mg/ml, 2 step F (catch fluid + cryoextender), 3 hrs post-thaw, Bulls 1-5): 70.5% and 74.5% and 81.5% and 51% and 63.5%; ALH (average lateral head displacement) [1]: 4 μm and 5 μm; BCF (times sperm head crosses the mean path/s) [1]: 21.5 Hz and 22.5 Hz and 26 Hz and 20.5 Hz and 23 Hz; LIN (percent linear sperm motility) [1]: 61% and 52.5% and 49% and 47%; STR (percent straight-line sperm motility) [1]: 85.5% and 84.5% and 83.5% and 84% and 86.5%; VAP (average path velocity) [1]: 77 μm/s and 56 μm/s and 60 μm/s and 50 μm/s; VCL (curvilinear velocity) [1]: 108 μm/s and 98 μm/s and 109 μm/s and 101 μm/s and 94 μm/s; VSL (straight-line velocity) [1]: 66 μm/s and 51 μm/s and 53 μm/s and 47 μm/s and 45 μm/s; % Motility (3 hr, 1 step-stain (+−−), Bull C (Jersey), Trial 1): 47%; % Motility (3 hr, 2 step-stain (++−), Bull C (Jersey), Trial 1): 57%; % Motility (3 hr, 2 step-stain (++−), Bull C (Jersey), Trial 2): 25%; % Motility (3 hr, 3 step (+++), Bull C (Jersey), Trial 1): 75%; % Motility (3 hr, 3 step (+++), Bull C (Jersey), Trial 2): 42%; % Motility (3 hr, vitamin B12 0.5 mg/ml, 3 step, Bull A (Jersey)): 42%; % Motility (3 hr, vitamin B12 0.5 mg/ml, 3 step, Bull B (Holstein)): 48%; ALH [2]: 4; BCF [2]: 12; LIN [2]: 53; Motile [2]: 48; Prog [2]: 18; STR [2]: 88; VAP [2]: 48; VCL [2]: 81; VSL [2]: 42; ALH [3]: 5; BCF [3]: 18; LIN [3]: 48; Motile [3]: 49; Prog [3]: 10; STR [3]: 86; VAP [3]: 44; VCL [3]: 79; VSL [3]: 38; ALH [4]: 6; BCF [4]: 15; LIN [4]: 47; Motile [4]: 25; Prog [4]: 4; STR [4]: 84; VAP [4]: 42; VCL [4]: 75; VSL [4]: 35; ALH [5]: 4; BCF [5]: 22; LIN [5]: 53; Motile [5]: 48; Prog [5]: 29; STR [5]: 87; VAP [5]: 55; VCL [5]: 92; VSL [5]: 47; ALH [6]: 5; BCF [6]: 20; LIN [6]: 50; Motile [6]: 48; Prog [6]: 18; STR [6]: 87; VAP [6]: 46; VCL [6]: 81; VSL [6]: 40; ALH [7]: 7; BCF [7]: 14; LIN [7]: 42; Motile [7]: 24; Prog [7]: 2; STR [7]: 70; VAP [7]: 41; VCL [7]: 69; VSL [7]: 28; ALH [8]: 5; BCF [8]: 20; LIN [8]: 50; Motile [8]: 48; Prog [8]: 20; STR [8]: 85; VAP [8]: 51; VCL [8]: 87; VSL [8]: 43; ALH [9]: 4; BCF [9]: 23; LIN [9]: 55; Motile [9]: 65; Prog [9]: 46; STR [9]: 88; VAP [9]: 58; VCL [9]: 94; VSL [9]: 51; ALH [10]: 5; BCF [10]: 23; LIN [10]: 53; Motile [10]: 46; Prog [10]: 30; STR [10]: 88; VAP [10]: 58; VCL [10]: 99; VSL [10]: 51; ALH [11]: 7; BCF [11]: 14; LIN [11]: 43; Motile [11]: 28; Prog [11]: 3; STR [11]: 69; VAP [11]: 41; VCL [11]: 68; VSL [11]: 32; ALH [12]: 6; BCF [12]: 15; LIN [12]: 43; Motile [12]: 14; Prog [12]: 3; STR [12]: 70; VAP [12]: 43; VCL [12]: 71; VSL [12]: 30
